This test deals with hedgehog signaling pathway. Put plainly: Gli-Luc Reporter Assay for Hh Pathway Inhibition (TMHh-12 cells, pTA-8×Gli-Luc reporter). The test is classed as cell-based, Mouse. Here is the method: Compounds of the present invention are assayed to evaluate their capacity to inhibit the hedgehog signaling pathway.
Gli-Luc Reporter Assay for Hh Pathway Inhibition
Mouse TM3 cells (obtained from American Type Culture Collection, ATCC, Manassas, Va.) are cultured in DMEM/F12 medium (Gibco/Invitrogen, Carlsbad, Calif.) supplemented with 5% heat inactivated horse serum and 2.5% FBS (Gibco/Invitrogen, Carlsbad, Calif.), 50 unit/mL penicillin and 50 μg/mL of streptomycin (Gibco/Invitrogen, Carlsbad, Calif.) at […] with 5% CO2 in air atmosphere. TM3 cells were transfected with pTA-8×Gli-Luc reporter plasmid. A stably transfected clone termed TMHh-12 was selected. […] To evaluate the IC50s of the antagonists, 8000 TMHh-12 cells were plated into each wells in 384-well plates with 50% DMEM/F12 medium supplemented with 2% FBS. After 12 hours, Hh pathway is activated by adding recombinant mouse Shh protein (expressed in E. coli, 8 μg/mL) or by adding Smo agonists. The testing compounds are added into plates with different concentrations. After 48 hours, the firefly luciferase luciferase activities are assayed with the Bright-Glo™ Luciferase Assay System (Promega, Madison, Wis.). The IC50 is measured when the effect of the compound reduces the luminescence signal by 50%. Toxicity of these compounds are evaluated in TM3 cells using CellTiter Glo assays or by TM3-Luc cell line (a TM3 cell stably transfected with a constitutive luciferase expression vector).
A general note: Reporter assays use an easily measured gene product as a stand-in for the process of interest.

[1] abbreviates: Mus musculus, TMHh12, Ag1.5 1 nM, read-out: Hedgehog Inhibition IC50 (nM) (Ag1.5 1 nM).
The mark [2] stands for this setting: Mus musculus, TMHh12, enzymatic and cellular assays for the inhibition of hedgehog signaling pathways, read-out: IC50 Ranges.
Setting [3] is: enzymatic and cellular assays for the inhibition of hedgehog signaling pathways, read-out: IC50 Ranges.

Read-outs that look alike come from different tables or passages of the source.

59 molecules from patent US9216964B2, “Hedgehog pathway modulators” (Novartis AG, priority 2008, dated 2015) can be followed below.

Broadly, the IC50 is the concentration needed to halve the response being measured.

As for `Cc1ccc(Nc2cccc3c2CCN(S(C)(=O)=O)C3)cc1-c1ccccc1` [Compound 115], the 50% inhibitory concentration (IC50) under setting [1] was 362 nM and the IC50 under setting [2] was 100 to 1000 nM. Turning to `Cc1cc2c(cn1)cc(-c1cc(Nc3cccc4c3CCN(S(C)(=O)=O)C4)ccc1C)c(=O)n2C` [Compound 116], the concentration for half-maximal inhibition (IC50) was 694 nM under setting [1] and 100 to 1000 nM under setting [2]. As to `Cc1ccc(Nc2cccc3c2CCN(S(C)(=O)=O)C3)cc1-c1ccc(C(C)C)cc1` [Compound 117], the IC50 under setting [2] lay within 100 to 1000 nM. Still for that read-out and setting: to `Cc1ccc(Nc2cccc3c2CCN(S(C)(=O)=O)C3)cc1-c1ccc(Cn2cccn2)cc1` [Compound 118] belongs 100 to 1000 nM. The same measure, in the same setting: to `Cc1ccc(Nc2cccc3c2CCN(S(C)(=O)=O)C3)cc1-c1cccc(C#N)c1` [Compound 119] belongs 10 to 100 nM. With `Cc1nc(-c2ccc(-c3cc(Nc4cccc5c4CCN(S(C)(=O)=O)C5)ccc3C)cc2)cs1` [Compound 120], under setting [2], the IC50 fell in the range of 10 to 100 nM. On the same count and under the same terms, under `Cc1ccc(Nc2cccc3c2CCN(S(C)(=O)=O)C3)cc1-c1ccc(-c2ccco2)cc1` [Compound 121] stands 100 to 1000 nM. Turning to `Cc1ccc(Nc2cccc3c2CCN(S(C)(=O)=O)C3)cc1-c1ccc(F)cc1` [Compound 122], the 50% inhibitory concentration (IC50) under setting [2] was in the range of 100 to 1000 nM. On to `Cc1ccc(Nc2cccc3c2CCN(S(C)(=O)=O)C3)cc1Oc1ccccc1` [Compound 123], for which the IC50 under setting [1] is 738 nM and the 50% inhibitory concentration (IC50) under setting [2] fell in the range of 100 to 1000 nM. In the same order, the values of `Cc1ccc(Nc2cccc3c2CCN(S(C)(=O)=O)C3)cc1-c1cnc(N(C)C)nc1` [Compound 124] are 135 nM and 100 to 1000 nM. Take `Cc1ccc(Nc2nccc3c2CCN(S(C)(=O)=O)C3)cc1-c1ccc(C#N)cc1` [Compound 125]: under setting [2], the 50% inhibitory concentration (IC50) was in the range of 10 to 100 nM.

In the case of `CS(=O)(=O)N1CCc2c(cccc2Nc2cc(-c3nc4ccccc4[nH]3)c(Cl)cn2)C1` [Compound 126], the 50% inhibitory concentration (IC50) under setting [2] is 10 to 100 nM.

As for `Cc1ccc(Nc2cccc3c2CCN(CC2(C)CC2)C3=O)cc1-c1nc2ccccc2[nH]1` [Compound 127], the 50% inhibitory concentration (IC50) under setting [2] lay in the range of 10 to 100 nM.

Consider `Cc1ccc(Nc2cccc3c2CCN(S(C)(=O)=O)C3)cc1-c1cnn(C)c1` [Compound 128], for which the IC50 under setting [2] lay in the range of 100 to 1000 nM.

As to `Cc1ccc(Nc2cccc3c2CCN(S(C)(=O)=O)C3)cc1-c1ccc(C#N)nc1` [Compound 129], the IC50 by setting is: under setting [1], 52 nM; under setting [2], 10 to 100 nM. For `Cc1ccc(Nc2cccc3c2CCN(S(C)(=O)=O)C3)cc1OCc1ccccc1` [Compound 130], the half-maximal inhibitory concentration (IC50) under setting [2] lay in the range of 1 to 10 nM. On to `CS(=O)(=O)N1CCc2c(cccc2Nc2ccc(F)c(-c3ccc(C#N)cc3)c2)C1` [Compound 131], for which, under setting [2], the IC50 lay within 10 to 100 nM.

`CS(=O)(=O)N1CCc2c(cccc2Nc2cccc(-c3ccc(C#N)cc3)c2)C1` [Compound 132]: under setting [2], the IC50 fell in the range of 10 to 100 nM. For `CS(=O)(=O)N1CCc2c(ccnc2Nc2ccc(Cl)c(-c3ncc(-c4ccccc4)[nH]3)c2)C1` [Compound 133], the IC50 under setting [2] fell in the range of 0.001 to 1 nM. Still for that read-out and setting: under `CS(=O)(=O)N1CCc2c(cccc2Nc2ccc(Cl)c(-c3ccc(C#N)cc3)c2)C1` [Compound 134] stands 10 to 100 nM. As to `CNC(=O)c1cccc(-c2cc(Nc3cccc4c3CCN(S(C)(=O)=O)C4)ccc2C)c1` [Compound 135], the 50% inhibitory concentration (IC50) runs as follows: under setting [1], 4180 nM; under setting [2], 1000 to 10000 nM.

Regarding `Cc1ccc(Nc2cccc3c2CCN(S(C)(=O)=O)C3)cc1-c1ccc(C(F)(F)F)cc1` [Compound 136], the half-maximal inhibitory concentration (IC50) is 90 nM under setting [1] and 10 to 100 nM under setting [2]. As for `Cc1ccc(Nc2cccc3c2CCN(S(C)(=O)=O)C3)cc1-c1ccc(OC(F)(F)F)cc1` [Compound 137], the IC50 under setting [2] was in the range of 10 to 100 nM. Still for that read-out and setting: under `Cc1ccc(Nc2cccc3c2CCN(S(C)(=O)=O)C3)cc1-c1ccc(C(=O)N(C)C)cc1` [Compound 138] stands 100 to 1000 nM. With `Cc1ccc(Nc2cccc3c2CCN(S(C)(=O)=O)C3)cc1-c1ccc(CC#N)cc1` [Compound 139], the IC50 by setting is: under setting [1], 101 nM; under setting [2], 100 to 1000 nM. The corresponding values for `Cc1ccc(Nc2cccc3c2CCN(S(C)(=O)=O)C3)cc1-c1cccc(C(=O)N2CCCC2)c1` [Compound 140] are 2940 nM and 1000 to 10000 nM. As for `COC(=O)c1ccc(-c2cc(Nc3cccc4c3CCN(S(C)(=O)=O)C4)ccc2C)cc1` [Compound 141], under setting [2], the IC50 was 100 to 1000 nM.

Consider `Cc1ccc(Nc2cccc3c2CCN(S(C)(=O)=O)C3)cc1-c1ccc(C(N)=O)cc1` [Compound 142], for which, under setting [2], the concentration for half-maximal inhibition (IC50) lay in the range of 100 to 1000 nM. On to `Cc1ccc(Nc2cccc3c2CCN(S(C)(=O)=O)C3)cc1-c1ccc(-c2nnn[nH]2)cc1` [Compound 143], for which the IC50 by setting is: under setting [1], above 10000 nM; under setting [2], above 10000 nM. As to `Cc1ccc(Nc2cccc3c2CCN(S(C)(=O)=O)C3)cc1-c1ccc(C(=O)O)cc1` [Compound 144], the IC50 under setting [2] lay in the range of 1000 to 10000 nM.

With `Cc1ccc(Nc2cccc3c2CCN(S(C)(=O)=O)C3)cc1-c1ccc(C(=O)NCCO)cc1` [Compound 145], the half-inhibitory concentration (IC50) under setting [2] is 100 to 1000 nM. The same measure, in the same setting: to `Cc1ccc(Nc2cccc3c2CCN(S(C)(=O)=O)C3)cc1-c1ccc(C(=O)NCC(O)CO)cc1` (centres unmarked) [Compound 146] belongs 1000 to 10000 nM; to `Cc1ccc(Nc2cccc3c2CCN(S(C)(=O)=O)C3)cc1-c1ccc(C(=O)N(CCO)CCO)cc1` [Compound 147], 1000 to 10000 nM. Regarding `Cc1ccc(Nc2cccc3c2CCN(S(C)(=O)=O)C3)cc1-c1ccc(C(=O)NCC(C)O)cc1` (centres unmarked) [Compound 148], the IC50 under setting [2] lay within 100 to 1000 nM.

For `COc1ccc(Nc2cccc3c2CCN(S(C)(=O)=O)C3)cc1-c1ccc(C#N)cc1` [Compound 149], the half-inhibitory concentration (IC50) under setting [2] was in the range of 100 to 1000 nM.

For the molecule `CS(=O)(=O)N1CCc2c(cccc2Nc2ccc(OC(F)(F)F)c(-c3ccc(C#N)cc3)c2)C1` [Compound 150], the IC50 under setting [2] lay within 1000 to 10000 nM. Consider `Cc1ccc(Nc2cccc3c2CCN(S(C)(=O)=O)C3)cc1-c1cc2ccccc2[nH]1` [Compound 151], for which the concentration for half-maximal inhibition (IC50) under setting [2] lay in the range of 10 to 100 nM. Regarding `Cc1ccc(Nc2cccc3c2CCN(S(C)(=O)=O)C3)cc1-c1cc2ccccc2n1C` [Compound 152], under setting [2], the IC50 fell in the range of 10 to 100 nM.

In the case of `Cc1ccc(Nc2cccc3c2CCN(S(C)(=O)=O)C3)cc1-c1ccc(C(F)(F)F)cn1` [Compound 153], the 50% inhibitory concentration (IC50) under setting [3] lay in the range of 0.001 to 1 nM.

With `Cc1ccc(Nc2cccc3c2CCN(S(C)(=O)=O)C3)cc1-c1ccc(C#N)cn1` [Compound 154], under setting [2], the half-inhibitory concentration (IC50) lay within 1 to 10 nM.

`CS(=O)(=O)N1CCc2c(cccc2Nc2ccc(C#N)c(-c3ccc(C#N)cc3)c2)C1` [Compound 155]: the IC50 under setting [2] fell in the range of 100 to 1000 nM.

On to `Cc1ccc(Nc2cccc3c2CCN(S(C)(=O)=O)C3)cc1-c1ccc(CO)cc1` [Compound 156], for which the IC50 is, setting by setting: under setting [1], 564 nM; under setting [2], 100 to 1000 nM. In the case of `Cc1ccc(Nc2cccc3c2CCN(S(C)(=O)=O)C3)cc1-c1ccc(CNCC(O)CO)cc1` (centres unmarked) [Compound 157], the IC50 under setting [2] lay in the range of 1000 to 10000 nM.

For the molecule `Cc1ccc(Nc2cccc3c2CCN(S(C)(=O)=O)C3)cc1-c1ccc(CNCCO)cc1` [Compound 158], under setting [2], the IC50 is 100 to 1000 nM. In the case of `Cc1ccc(Nc2cccc3c2CCN(S(C)(=O)=O)C3)cc1C(=O)Nc1ccccc1` [Compound 159], the half-inhibitory concentration (IC50) under setting [1] turned out to be 0.1 nM and the 50% inhibitory concentration (IC50) under setting [2] is 0.001 to 1 nM. The corresponding values for `Cc1ccc(Nc2cccc3c2CCN(S(C)(=O)=O)C3)cc1C(=O)Nc1ccc(C#N)cc1` [Compound 160] are 1 nM and 0.001 to 1 nM. With `COc1ccc(NC(=O)c2cc(Nc3cccc4c3CCN(S(C)(=O)=O)C4)ccc2C)cc1` [Compound 161], the concentration for half-maximal inhibition (IC50) under setting [2] fell in the range of 0.001 to 1 nM.

For `Cc1ccc(Nc2cccc3c2CCN(S(C)(=O)=O)C3)cc1C(=O)Nc1ccccn1` [Compound 162], the half-maximal inhibitory concentration (IC50) reads like this: under setting [1], 2.1 nM; under setting [2], 1 to 10 nM. In the same order, the values of `Cc1cc(C#N)ccc1-c1cc(Nc2cccc3c2CCN(S(C)(=O)=O)C3)ccc1C` [Compound 163] are 47 nM and 10 to 100 nM.

`Cc1ccc(Nc2cccc3c2CCN(S(C)(=O)=O)C3)cc1-c1ccc(F)cn1` [Compound 164]: the IC50 under setting [2] lay in the range of 0.001 to 1 nM. Same read-out and setting: to `COc1cccc(-c2cc(Nc3cccc4c3CCN(S(C)(=O)=O)C4)ccc2C)n1` [Compound 165] belongs 100 to 1000 nM; to `Cc1ccc(Nc2cccc3c2CCN(S(C)(=O)=O)C3)cc1OCc1ccc(C#N)cc1` [Compound 166], 10 to 100 nM. For the molecule `Cc1ccc(Nc2cccc3c2CCN(S(C)(=O)=O)C3)cc1-c1ccc(C(F)(F)F)cn1` [Compound 167], the IC50 under setting [3] lay in the range of 1 to 10 nM. As for `Cc1cc(C#N)ccc1-c1cccc(Nc2cccc3c2CCN(S(C)(=O)=O)C3)c1` [Compound 168], the half-inhibitory concentration (IC50) under setting [2] lay in the range of 100 to 1000 nM. On the same count and under the same terms, under `Cc1ccc(-c2cc(Nc3cccc4c3CCN(S(C)(=O)=O)C4)ccc2C)nc1` [Compound 169] stands 0.001 to 1 nM; under `Cc1ccc(-c2cc(Nc3cccc4c3CCN(S(C)(=O)=O)C4)ccc2C)nn1` [Compound 170], 1 to 10 nM; under `CS(=O)(=O)N1CCc2c(cccc2Nc2cc(-c3ccc(C#N)cc3)c(Cl)cn2)C1` [Compound 171], 100 to 1000 nM. On the same count and under the same terms, to `CS(=O)(=O)N1CCc2c(cccc2Nc2ccc(C(=O)O)c(-c3ccc(C#N)cc3)c2)C1` [Compound 172] belongs above 10000 nM; to `Cc1ccc(Nc2cccc3c2CCN(S(C)(=O)=O)C3)cc1-c1ccc(Cl)cn1` [Compound 173], 0.001 to 1 nM.
